In PMC5736175, “Nicotinic alpha 7 receptor agonists EVP-6124 and BMS-933043, attenuate scopolamine-induced deficits in visuo-spatial paired associates learning” (PLoS ONE, 2017):
Values joined by “and” are separate entries in the source; they are usually repeats but may differ in a detail not shown here. Equal values may be shown once.

Experiments:
human nAChR α7 [1] = test system: human nAChR α7; parameters: method as in PMID 20959364; details: QM7 cells expressing human nAChR α7; cited from earlier work
5-HT3 receptor = details: cited from earlier work
[2] = Plasma pharmacokinetics in satellite animals (LC-MS/MS), 60 min after i.m. dose; details: for concentration at 60 min: cynomolgus monkey, plasma, intramuscular
Protocol: For all compounds, plasma pharmacokinetic studies were conducted in a separate cohort of cynomolgus monkeys (N = 2–3 subjects per dose) before beginning vsPAL testing to help guide dose selection. Blood samples were obtained with the animals awake and sitting in a primate chair.
Plasma concentrations of test compounds were determined using LC-MS/MS assays. In brief, 50 μL plasma and sample containing compounds was extracted by protein precipitation method with 150 μL acetonitrile containing an internal standard. A 5 μL sample of supernatant was injected into the LC-MS/MS system. Analytes were separated by reversed phase chromatography and detection of each analyte was achieved through selected reaction monitoring mode of mass spectrometry. Samples were quantified by calculated peak area ratio of analyte and internal standard against a calibration curve.

human nAChR α7 [3] = test system: human nAChR α7; parameters: method as in PMID 20959364, PMID 22085888; details: xenopus oocytes expressing human nAChR α7; cited from earlier work
[4] = test system: scopolamine-treated cynomolgus monkeys; assay: Scopolamine-induced impairment of vsPAL task performance, treatment + scopolamine; format: in vivo, cynomolgus monkeys (Macaca Fasicularis)
Protocol: Doses cited refer to the free base form of the compounds. […] All drugs were administered intramuscularly (i.m.) in a dosing volume of 0.1–0.2 ml/kg.
On days when compound testing occurred, approximately half the cohort received one dose and the remainder another dose of the same compound and therefore dose order was staggered between animals. With the exception of EVP-6124, all other compounds were tested in a single dose response study.
Cohen’s d values of >0.2, >0.5 and >0.8 are described using the conventions of small, medium, and large effects, respectively.

[5] = RG3487 0.03 mg/kg + Individualized Scopolamine, MEAN of 8 animals
[6] = RG3487 0.03 mg/kg + Individualized Scopolamine, individual animals, 0.03 mg/kg
[7] = RG3487 0.03 mg/kg + scopolamine, MEAN of 8 animals
[8] = RG3487 0.03 mg/kg + scopolamine, individual animals, 0.03 mg/kg
[9] = RG3487 0.1 mg/kg + Individualized Scopolamine, MEAN of 8 animals
[10] = RG3487 0.1 mg/kg + Individualized Scopolamine, individual animals, 0.1 mg/kg
[11] = RG3487 0.1 mg/kg + scopolamine, MEAN of 8 animals
[12] = RG3487 0.1 mg/kg + scopolamine, individual animals, 0.1 mg/kg

Cl.O=C(N[C@@H]1CN2CCC1CC2)c1n[nH]c2ccccc12 [RG3487, N-[(3S)-1-Azabicyclo[2.2.2]oct-3-yl]-1H-indazole-3-carboxamide HCl]
maximal peak current relative to acetylcholine (human nAChR α7 [1]): 69%
net charge relative to acetylcholine (human nAChR α7 [1]): 53%
5-HT3 receptor antagonism (5-HT3 receptor): potent 5-HT3 receptor antagonists
nM total compound in plasma from satellite animals, 60 min ([2]; 0.10 mg/kg i.m., individual subjects): 74.4 nM
nM total compound in plasma from satellite animals, 60 min ([2]; 0.30 mg/kg i.m., individual subjects): 132.0 nM
nM total compound in plasma from satellite animals, 60 min ([2]; 1.00 mg/kg i.m., individual subjects): 305.0 nM
concentration at 60 min ([2]; 0.1 mg/kg, nM total compound in plasma from satellite animals, 60 min, 0.10 mg/kg i.m., individual subjects): 42.9 nM
concentration at 60 min ([2]; 0.1 mg/kg, nM total compound in plasma from satellite animals, 60 min, 0.10 mg/kg i.m., mean): 58.7 nM
concentration at 60 min ([2]; 0.3 mg/kg, nM total compound in plasma from satellite animals, 60 min, 0.30 mg/kg i.m., individual subjects): 114 nM
concentration at 60 min ([2]; 0.3 mg/kg, nM total compound in plasma from satellite animals, 60 min, 0.30 mg/kg i.m., mean): 123 nM
concentration at 60 min ([2]; 1 mg/kg, nM total compound in plasma from satellite animals, 60 min, 1.00 mg/kg i.m., individual subjects): 595 nM
concentration at 60 min ([2]; 1 mg/kg, nM total compound in plasma from satellite animals, 60 min, 1.00 mg/kg i.m., mean): 450 nM
concentration at 60 min ([2]; exposures (predicted and measured), 0.03-1 mg/kg im dose range): 15 to 450 nM
concentration at 60 min ([2]; mean plasma concentrations, satellite animals 60 min post-administration, 0.1-1.0 mg/kg dose range): 58.7 to 450 nM
maximal peak current, % of the acetylcholine response (human nAChR α7 [3]): 63%
Initial Correct, 3 Stimuli [4, 5]: 43.8%
Initial Correct, 4 Stimuli [4, 5]: 25.0%
Initial Correct, Overall Mean % Correct [4, 5]: 50.8%
Initial correct, 2 Stimuli [4, 5]: 83.8%
Initial Correct, 3 Stimuli [4, 6]: 60.0% and 20.0% and 40.0% and 30.0% and 90.0% and 10.0% and 80.0%
Initial Correct, 4 Stimuli [4, 6]: 30.0% and 0.0% and 50.0% and 40.0%
Initial Correct, Overall Mean % Correct [4, 6]: 60.0% and 36.7% and 46.7% and 76.7% and 40.0% and 30.0% and 70.0%
Initial correct, 2 Stimuli [4, 6]: 90.0% and 70.0% and 60.0% and 100.0% and 80.0%
Eventual Correct, 4 Stimuli ([4]; RG3487 0.03 mg/kg + scopolamine, MEAN): 59.5%
% Completion [4, 7]: 73.5%
Average Response Latency (Avg Rsp Lat) [4, 7]: 2136.0 ms
Eventual Correct, 2 Stimuli [4, 7]: 98.8%
Eventual Correct, 3 Stimuli [4, 7]: 83.8%
Eventual Correct, Overall Mean % Correct [4, 7]: 78.2%
% Completion [4, 8]: 66.2% and 53.1% and 100.0% and 69.9% and 90.5% and 22.8% and 97.3% and 88.2%
Average Response Latency (Avg Rsp Lat) [4, 8]: 2657.3 ms and 2531.6 ms and 1590.6 ms and 1325.7 ms and 2502.3 ms and 1742.8 ms and 2670.3 ms and 2067.1 ms
Eventual Correct, 2 Stimuli [4, 8]: 100.0% and 90.0%
Eventual Correct, 3 Stimuli [4, 8]: 100.0% and 60.0% and 70.0% and 50.0% and 90.0%
Eventual Correct, 4 Stimuli [4, 8]: 50.0% and 0.0% and 90.0% and 70.0% and 100.0% and 16.7%
Eventual Correct, Overall Mean % Correct [4, 8]: 83.3% and 50.0% and 96.7% and 80.0% and 100.0% and 68.9%
Initial Correct, 3 Stimuli [4, 9]: 47.5%
Initial Correct, 4 Stimuli [4, 9]: 13.8%
Initial Correct, Overall Mean % Correct [4, 9]: 50.4%
Initial correct, 2 Stimuli [4, 9]: 90.0%
Initial Correct, 3 Stimuli [4, 10]: 70.0% and 10.0% and 60.0% and 50.0% and 80.0% and 40.0% and 30.0%
Initial Correct, 4 Stimuli [4, 10]: 20.0% and 0.0% and 30.0% and 10.0% and 50.0%
Initial Correct, Overall Mean % Correct [4, 10]: 63.3% and 30.0% and 46.7% and 56.7% and 43.3%
Initial correct, 2 Stimuli [4, 10]: 100.0% and 80.0% and 90.0%
% Completion [4, 11]: 75.6%
Average Response Latency (Avg Rsp Lat) [4, 11]: 2202.7 ms
Eventual Correct, 2 Stimuli [4, 11]: 100.0%
Eventual Correct, 3 Stimuli [4, 11]: 91.3%
Eventual Correct, 4 Stimuli [4, 11]: 48.1%
Eventual Correct, Overall Mean % Correct [4, 11]: 79.8%
Eventual Correct, 2 Stimuli ([4]; RG3487 0.1 mg/kg + scopolamine, individual animals): 100.0%
% Completion [4, 12]: 58.8% and 65.1% and 100.0% and 88.7% and 67.1% and 35.0% and 91.9% and 98.1%
Average Response Latency (Avg Rsp Lat) [4, 12]: 2536.1 ms and 2248.5 ms and 1598.6 ms and 1289.8 ms and 2048.9 ms and 2712.3 ms and 2472.3 ms and 2715.2 ms
